# From ChEMBL document CHEMBL3244234, “Alteration of relative affinities toward myocardial and vascular beta adrenoceptors induced by side-chain substitution of aryloxypropanolamines” (J Med Chem, 1978)
# Assays:
# Felis catus [1] = experiment: Potency ratio for in vivo inhibition of beta-1 adrenoceptor in vagotomized cat assessed as inhibition of isoproterenol-induced tachycardia to in vivo inhibition of beta-2 adrenoceptor in chloralose-anesthetized vagotomized cat assessed as inhibition of isoproterenol-induced fall in diastolic pressure; format: functional
# [2] = 1-Octanol-phosphate buffer apparent partition coefficient, log P of the compound at pH 7.4; format: physicochemical
# Felis catus [3] = experiment: In vivo inhibition of beta-1 adrenoceptor in vagotomized cat assessed as inhibition of isoproterenol-induced tachycardia; format: functional, organism-based; settings: read-out: pA2 (converted)
# Felis catus [4] = experiment: In vivo inhibition of beta-2 adrenoceptor in chloralose-anesthetized vagotomized cat assessed as inhibition of isoproterenol-induced fall in diastolic pressure; format: functional, organism-based; settings: read-out: pA2 (converted)
# Felis catus [5] = experiment: Potency ratio for in vivo inhibition of beta-2 adrenoceptor in chloralose-anesthetized vagotomized cat assessed as inhibition of isoproterenol-induced fall in diastolic pressure to in vivo inhibition of beta-1 adrenoceptor in vagotomized cat assessed as inhibition of isoproterenol-induced tachycardia; format: functional
# Cavia porcellus = species: Cavia porcellus; experiment: Selectivity for guinea pig right atria beta-1 adrenoceptor over guinea pig trachea beta-2 adrenoceptor
Structure (SMILES),Ratio (Felis catus [1]),logD [2],Kb (Felis catus [3]) [nM],Kb (Felis catus [4]) [nM],Ratio (Felis catus [5]),Selectivity ratio (Cavia porcellus)
COc1ccc(CCNCC(O)COc2ccccc2)cc1OC.Cl (racemic),10,1.7,63.1,692,,
CC(C)N[C@H](C)[C@@H](O)COc1ccccc1.Cl (racemic),0.3,-0.244,501,151,3,
COc1ccc(CCN[C@H](C)[C@@H](O)COc2ccccc2)cc1OC.Cl (racemic),>40,1.66,219,> 10000,,
CC(C)N[C@@H](C)[C@@H](O)COc1ccccc1.O=C(O)C(=O)O (racemic),0.3,-0.244,2190,631,3,
CC(C)N[C@H](c1ccccc1)[C@@H](O)COc1ccccc1 (racemic),,2.1,> 10000,> 10000,,
Cc1ccc([C@@H](O)[C@H](C)NC(C)C)cc1 (racemic),<0.3,0.149,> 10000,3390,,
Cc1ccc(OCC(O)CNC(C)C)cc1 (racemic),1,0.423,234,234,,
CC(C)NCC(O)COc1ccccc1 (racemic),5,-0.137,44.7,204,,25
CC(=O)Nc1ccc(OCC(O)CNC(C)C)cc1 (racemic) [PRACTOLOL],22,-1.05,229,5010,,
